Laboratory results taken from patent US20260144820A1, “ACTIVATION OF RESIDENT MEMORY T CELLS FOR CANCER IMMUNOTHERAPY” (priority 2015, published 2026).

Columns and labels:
[1] = system: VSV-Ova specific TRM; parameters: species or system mice; conditions: mouse, in vivo
[2] = system: virus-specific TRM within skin tumors; parameters: species or system mice; conditions: mouse, in vivo

Sequence: SIINFEKL
- reactivation of virus-specific TRM within skin tumors [1]: can become reactivated
- recruitment of CD8 T cells and NK cells to tumors [2]: recruit CD8 T cells and NK cells to the tumors
